# Test results reported in patent publication US4212862A, “O,O-Diaryl-1-acyloxy-2,2,2-trichloroethylphosphonates and fungicides based thereon” (priority 1978, dated 1980).
# Several values for one entry are separate records, joined by “and”; a condition that tells them apart may be missing. Equal entries are not always repeated. Where two headings read alike, the source gives them in different places.
# Experiments:
# [1] = test system: stalk rust (Puccinia graminis f. tritici); assay type: in vivo; conditions: in vivo
# [2] = test system: stalk rust of wheat (Puccinia graminis); assay type: in vivo
# [3] = Acute peroral toxicity for warm-blooded animals (LD50, LD90); assay type: in vivo, white mice; conditions: mouse, in vivo, po, Table 2; peroral; read-out: LD50 for white mice
# Protocol: Toxicity (LD50) was evaluated on males and females of white mice with peroral administration of the compounds. A portion of the test compound was mixed with the emulsifier Twin-20 and diluted with distilled water to the required working concentration. Administration of the preparation was effected by means of a metal probe and syringe directly into the stomach of test animals 2-3 hours after feeding. The tests were performed using several doses, 6 animals per each dose. Subsequent observation was effected for two weeks.
SMILES,"Percentage of plants injured with rust, 1-st evaluation [1]","Percentage of plants injured with rust, 2-nd evaluation [1]","Weight of 1,000 grains [1]",Yield [1],Percentage of injury lowered ([2]; in vivo),LD50 at 336 h [3],"Percentage of injury lowered ([2]; at a concentration of 0.02%, sprayed 3 days before inoculation)","Percentage of injury lowered ([2]; at a concentration of 0.1%, sprayed 3 days before inoculation)"
CCCC(=O)OC(C(Cl)(Cl)Cl)P(=O)(Oc1ccccc1)Oc1ccccc1 (stereo not drawn) [III],0.5%,7.0%,18.4 g,14.00 c/ha,68% and 51%,> 500 mg/kg,–,–
CCC(=O)OC(C(Cl)(Cl)Cl)P(=O)(Oc1ccccc1)Oc1ccccc1 (stereo not drawn) [II],0.5%,11.0%,16.5 g,11.50 c/ha,78% and 63%,> 1000 mg/kg,–,–
CCCCCCC(=O)OC(C(Cl)(Cl)Cl)P(=O)(Oc1ccccc1)Oc1ccccc1 (stereo not drawn) [IV],0.5%,6.5%,23.8 g,20.00 c/ha,98% and 74%,> 1000 mg/kg,–,–
CCCC(=O)OC(C(Cl)(Cl)Cl)P(=O)(Oc1ccccc1C)Oc1ccccc1C (stereo not drawn) [IX],–,–,–,–,–,> 1000 mg/kg,–,–
CCC(=O)OC(C(Cl)(Cl)Cl)P(=O)(Oc1ccccc1C)Oc1ccccc1C (stereo not drawn) [VIII],0.5%,8.5%,15.3 g,10.15 c/ha,96% and 76%,> 1000 mg/kg,–,–
CC(=O)OC(C(Cl)(Cl)Cl)P(=O)(Oc1ccccc1C)Oc1ccccc1C (stereo not drawn) [VII],0.5%,9.0%,15.1 g,10.10 c/ha,83% and 77%,> 1000 mg/kg,–,–
O=C(OC(C(Cl)(Cl)Cl)P(=O)(Oc1ccccc1)Oc1ccccc1)c1ccccc1 (stereo not drawn) [VI],0.5%,8.5%,16.4 g,11.30 c/ha,99% and 98%,> 1000 mg/kg,–,–
CCCCC(CC)C(=O)OC(C(Cl)(Cl)Cl)P(=O)(Oc1ccccc1)Oc1ccccc1 (stereo not drawn) [V],0.5%,13.0%,14.8 g,9.50 c/ha,74% and 61%,> 1000 mg/kg,–,–
CCC(=O)OC(C(Cl)(Cl)Cl)P(=O)(Oc1cccc(C)c1)Oc1cccc(C)c1 (stereo not drawn) [XIII],0.5%,10.0%,16.9 g,12.05 c/ha,98% and 85%,> 1000 mg/kg,–,–
CC(=O)OC(C(Cl)(Cl)Cl)P(=O)(Oc1cccc(C)c1)Oc1cccc(C)c1 (stereo not drawn) [XII],0.5%,8.0%,16.1 g,11.00 c/ha,86% and 68%,> 1000 mg/kg,–,–
CCCC(=O)OC(C(Cl)(Cl)Cl)P(=O)(Oc1cccc(C)c1)Oc1cccc(C)c1 (stereo not drawn) [XIV],0.5%,7.0%,17.2 g,12.00 c/ha,99% and 92%,> 1000 mg/kg,–,–
CCC(=O)OC(C(Cl)(Cl)Cl)P(=O)(Oc1ccc(C)cc1)Oc1ccc(C)cc1 (stereo not drawn) [XIX],0.5%,8.0%,18.9 g,14.60 c/ha,100% and 66%,> 1000 mg/kg,–,–
Cc1ccccc1OP(=O)(Oc1ccccc1C)C(OC(=O)c1ccccc1)C(Cl)(Cl)Cl (stereo not drawn) [XI],0.5%,8.0%,17.8 g,12.40 c/ha,–,> 1000 mg/kg,–,–
CCC(=O)OC(C(Cl)(Cl)Cl)P(=O)(Oc1cccc2ccccc12)Oc1cccc2ccccc12 (stereo not drawn) [XLIII],–,–,–,–,89% and 72%,> 1000 mg/kg,–,–
CC(=O)OC(C(Cl)(Cl)Cl)P(=O)(Oc1cccc2ccccc12)Oc1cccc2ccccc12 (stereo not drawn) [XLII],–,–,–,–,92% and 87%,> 1000 mg/kg,–,–
CCCC(=O)OC(C(Cl)(Cl)Cl)P(=O)(Oc1cccc2ccccc12)Oc1cccc2ccccc12 (stereo not drawn) [XLIV],–,–,–,–,71%,> 1000 mg/kg,–,–
CCC(=O)OC(C(Cl)(Cl)Cl)P(=O)(Oc1ccc(Cl)c(C)c1)Oc1ccc(Cl)c(C)c1 (stereo not drawn) [XLI],–,–,–,–,91% and 53%,> 1000 mg/kg,–,–
CCCC(=O)OC(C(Cl)(Cl)Cl)P(=O)(Oc1ccc(-c2ccccc2)cc1)Oc1ccc(-c2ccccc2)cc1 (stereo not drawn) [XLVIII],–,–,–,–,67%,> 1000 mg/kg,–,–
CCC(=O)OC(C(Cl)(Cl)Cl)P(=O)(Oc1ccc(-c2ccccc2)cc1)Oc1ccc(-c2ccccc2)cc1 (stereo not drawn) [XLVII],–,–,–,–,–,> 1000 mg/kg,–,–
CC(=O)OC(C(Cl)(Cl)Cl)P(=O)(Oc1ccc(-c2ccccc2)cc1)Oc1ccc(-c2ccccc2)cc1 (stereo not drawn) [XLVI],–,–,–,–,–,> 1000 mg/kg,–,–
CCCCCCC(=O)OC(C(Cl)(Cl)Cl)P(=O)(Oc1ccc(-c2ccccc2)cc1)Oc1ccc(-c2ccccc2)cc1 (stereo not drawn) [XLV],–,–,–,–,72%,> 1000 mg/kg,–,–

SMILES,"Percentage of plants injured with rust, 1-st evaluation [1]","Percentage of plants injured with rust, 2-nd evaluation [1]","Weight of 1,000 grains [1]",Yield [1],Percentage of injury lowered ([2]; in vivo),LD50 at 336 h [3],"Percentage of injury lowered ([2]; at a concentration of 0.02%, sprayed 3 days before inoculation)","Percentage of injury lowered ([2]; at a concentration of 0.1%, sprayed 3 days before inoculation)"
CC(=O)OC(C(Cl)(Cl)Cl)P(=O)(Oc1ccc(Cl)c(C)c1)Oc1ccc(Cl)c(C)c1 (stereo not drawn) [XL],–,–,–,–,95% and 76%,> 1000 mg/kg,–,–
CC(=O)OC(C(Cl)(Cl)Cl)P(=O)(Oc1ccc(C)cc1)Oc1ccc(C)cc1 (stereo not drawn) [XVIII],0.5%,6.5%,21.4 g,17.20 c/ha,91% and 63%,> 500 mg/kg,–,–
Cc1cccc(OP(=O)(Oc2cccc(C)c2)C(OC(=O)c2ccccc2)C(Cl)(Cl)Cl)c1 (stereo not drawn) [XVII],–,–,–,–,–,> 1000 mg/kg,–,–
CCCCC(CC)C(=O)OC(C(Cl)(Cl)Cl)P(=O)(Oc1cccc(C)c1)Oc1cccc(C)c1 (stereo not drawn) [XVI],–,–,–,–,86%,> 1000 mg/kg,–,–
CCCCCCC(=O)OC(C(Cl)(Cl)Cl)P(=O)(Oc1cccc(C)c1)Oc1cccc(C)c1 (stereo not drawn) [XV],0.5%,7.0%,19.4 g,15.10 c/ha,98% and 80%,> 1000 mg/kg,–,–
Cc1ccc(OP(=O)(Oc2ccc(C)cc2)C(OC(=O)c2ccccc2)C(Cl)(Cl)Cl)cc1 (stereo not drawn) [XXIII],0.5%,8.0%,18.1 g,13.30 c/ha,89% and 79%,> 1000 mg/kg,–,–
CCCCC(CC)C(=O)OC(C(Cl)(Cl)Cl)P(=O)(Oc1ccc(C)cc1)Oc1ccc(C)cc1 (stereo not drawn) [XXII],0.5%,9.0%,15.8 g,11.00 c/ha,94% and 48%,> 1000 mg/kg,–,–
CCCCCCCCc1ccc(OP(=O)(Oc2ccc(CCCCCCCC)cc2)C(OC(C)=O)C(Cl)(Cl)Cl)cc1 (stereo not drawn) [XXIV],0.5%,12.0%,13.5 g,8.00 c/ha,62% and 35%,> 1000 mg/kg,–,–
CCCCCCCCc1ccc(OP(=O)(Oc2ccc(CCCCCCCC)cc2)C(OC(=O)CC)C(Cl)(Cl)Cl)cc1 (stereo not drawn) [XXV],0.5%,10.0%,16.0 g,11.10 c/ha,–,> 1000 mg/kg,–,–
CCC(=O)OC(C(Cl)(Cl)Cl)P(=O)(Oc1ccc(F)cc1)Oc1ccc(F)cc1 (stereo not drawn) [XXXIII],–,–,–,–,100% and 62%,> 1000 mg/kg,–,–
CC(=O)OC(C(Cl)(Cl)Cl)P(=O)(Oc1ccc(F)cc1)Oc1ccc(F)cc1 (stereo not drawn) [XXXII],–,–,–,–,100% and 84%,> 1000 mg/kg,–,–
CCCC(=O)OC(C(Cl)(Cl)Cl)P(=O)(Oc1ccc(F)cc1)Oc1ccc(F)cc1 (stereo not drawn) [XXXIV],0.5%,7.4%,19.6 g,15.10 c/ha,99% and 95%,–,–,–
CCC(=O)OC(C(Cl)(Cl)Cl)P(=O)(Oc1ccc(Cl)cc1C)Oc1ccc(Cl)cc1C (stereo not drawn) [XXXIX],–,–,–,–,–,> 500 mg/kg,–,–
CC(=O)OC(C(Cl)(Cl)Cl)P(=O)(Oc1ccc(Cl)cc1C)Oc1ccc(Cl)cc1C (stereo not drawn) [XXXVIII],–,–,–,–,92% and 53%,> 500 mg/kg,–,–
O=C(OC(C(Cl)(Cl)Cl)P(=O)(Oc1ccc(F)cc1)Oc1ccc(F)cc1)c1ccccc1 (stereo not drawn) [XXXVII],–,–,–,–,–,> 1000 mg/kg,–,–
CCCCC(CC)C(=O)OC(C(Cl)(Cl)Cl)P(=O)(Oc1ccc(F)cc1)Oc1ccc(F)cc1 (stereo not drawn) [XXXVI],–,–,–,–,–,> 1000 mg/kg,–,–
CCCCCCC(=O)OC(C(Cl)(Cl)Cl)P(=O)(Oc1ccc(F)cc1)Oc1ccc(F)cc1 (stereo not drawn) [XXXV],–,–,–,–,–,> 1000 mg/kg,–,–
CCCCC(CC)C(=O)OC(C(Cl)(Cl)Cl)P(=O)(Oc1ccccc1C)Oc1ccccc1C (stereo not drawn) [X],–,–,–,–,–,> 1000 mg/kg,–,–
"COP(=O)(OC)C(OC(C)=O)C(Cl)(Cl)Cl (stereo not drawn) [chloracetophos, O,O-dimethyl-1-acetoxy-2,2,2-trichloroethylphosphonate, reference compound]",–,–,–,–,–,> 1000 mg/kg,10%,54%
O=P(Oc1ccccc1)(Oc1ccccc1)C(O)C(Cl)(Cl)Cl (stereo not drawn) [reference compound],–,–,–,–,71% and 61%,> 400 mg/kg,–,–
